Data taken from patent US8709392B2, “Cosmetic/dermatological compositions comprising naphthoic acid compounds and polyurethane polymers” (Galderma Research & Development, priority 2005, dated 2014).

Columns and labels:
[1] = system: skin of the ear of the BALB/c mouse; assay: Tolerance study in BALB/c mice (ear thickness after repeated topical applications); format: in vivo
Protocol: The present study is for comparing the irritant power of a reference gel containing 0.1% adapalene with that of three 0.1% adapalene formulations in gel form containing a polyurethane polymer at various concentrations, and also placebos thereof, on the skin of the ear of the BALB/c mouse after repeated topical applications for 6 days.
The daily topical application (20 μl) of the test products is performed on the inner face of the ear of BALB/c mice divided into ten groups (female mice about 8 weeks old) at a rate of one application per day for 6 days. The test products are:
The evaluation is performed by measuring the thickness of the ear by means of the Oditest and by clinical observation of the animals from the 2nd to the 19th day.

[2] = system: skin of the back of RHINO FVB/N RJ-hr^rh mice (Rhino); assay: Study of the comedolytic activity on Rhino mice; format: in vivo, mouse; conditions: for Change in weight of the Rhino mice (%) D19-D1, Mean: 50 μl topical daily for 18 days; for increase in transepidermal water loss (TWL), AUC: Rhino mice, after 18 days of topical treatment
Protocol: The present study is aimed at evaluating the comedolytic activity of the reference gel containing 0.1% adapalene and of two 0.1% adapalene formulations in gel form with a polyurethane polymer at different concentrations, and also their placebos, on the skin of the back of RHINO FVB/N RJ-hr^rh mice (Rhino) after repeated topical applications for 18 days.
The daily topical application (50 μl) of the test products is performed on the skin of the back of Rhino mice divided into seven groups (approximately 7-week-old mice) at a rate of one application per day for 18 days. The test products are:
The tolerance evaluation is made by clinical observation of the dorsal epidermis with the following observation parameters: oedema, erythema and squamae 3 times a week for 19 days.
The comedolytic activity is evaluated by measuring the transepidermal water loss (TWL) on days D4, D11 and D19, by measuring the thickness of the epidermis, by counting the number of comedones/cm and by weighing the animals on days D1, D4, D11 and D19.
The TWL quantifies the impairment in the skin barrier by measuring the gradient of water vapor that is established in a layer 10 mm thick above the surface of the skin.

| Structure (SMILES) | irritant power ([1]; BALB/c mouse ear thickness kinetics D2-D19) | Increase in AUC versus placebo (%) ([1]; ear thickness AUC D2-D19, BALB/c mouse, relative to own placebo) | Change in weight of the Rhino mice (%) D19-D1, Mean [2] [%] | increase in transepidermal water loss (TWL), AUC [2] [%] |
| --- | --- | --- | --- | --- |
| COc1ccc(-c2ccc3cc(C(=O)O)ccc3c2)cc1C12CC3CC(CC(C3)C1)C2 [acetone+0.1% (m/m) adapalene, 6-[3-(1-adamantyl)-4-methoxyphenyl]-2-naphthoic acid] | also irritant | 30 | 9.2 | 299 |
| CC1(C)CCC(C)(C)c2cc(-c3cc4ccc(C(=O)O)cc4s3)ccc21 [2-(5,5,8,8-tetramethyl-5,6,7,8-tetrahydronaphthalen-2-yl)benzo[b]thiophene-6-carboxylic acid] | – | – | 10.4 | 332 |
